Laboratory results taken from patent publication US6518302B1, “Remedies” (Takara Shuzo Co., Ltd., priority 1999, dated 2003).
Read-outs that look alike come from different tables or passages of the source.

Columns and labels:
[1] = test system: HL-60 (ATCC CCL-240) cells; experiment: Viability of HL-60 cells by Trypan Blue staining; assay type: cell-based; conditions: Homo sapiens, read-out: Viability50, concentration that results in a viability of 50%
Protocol: HL-60 (ATCC CCL-240) cells were cultured at 37° C. in RPMI 1640 medium (Bio Whittaker) containing 10% fetal calf serum (JRH) which had been treated at 56° C. for 30 minutes and suspended in RPMI 1640 medium at a concentration of 2.5×10^5 cells/4.5 ml.
[…] each of aqueous solutions of the compound (2) at a concentration of 10, 50 or 100 mM, the compound (7) at a concentration of 500, 1000 or 1500 μM, the compound (9) at a concentration of 750, 1500 or 3000 μM, the compound (11) at a concentration of 750, 1500 or 3000 μM, or the compound (14) at a concentration of 750, 1500 or 3000 μM was added to 4.5 ml of the suspension. The mixtures were incubated at 37° C. for 24 hours in the presence of 5% CO2.
A portion of the cells cultured for 24 or 48 hours as described in Example 4 was stained with 0.4% Trypan Blue and examined under an optical microscope. The number of viable cells which were not stained and the number of dead cells which were stained blue were counted. The concentration of each of the compounds (2), (7), (9), (11) and (14) that results in a viability of 50% (Viability50 mM) was determined.

[2] = test system: HL-60 cells (ATCC CCL-240); experiment: Proliferation of HL-60 cells with or without hydroxyurea G1 arrest (WST-1); assay type: cell-based, Human; conditions: Homo sapiens, 48 hours
Protocol: HL-60 cells (ATCC CCL-240) were suspended in RPMI 1640 medium (Bio Whittaker, 12-702F) containing 10% fetal calf serum (Gibco) and 100 μM hydroxyurea at a concentration of 5×10^5 cells/ml. 20 ml of the suspension was added to a 10-cm Petri dish. The dish was incubated at 37° C. overnight in the presence of 5% CO2 to make the cells arrest at G1 phase. The cells were collected by centrifugation and resuspended in RPMI 1640 medium containing 10% fetal calf serum (Gibco) and 100 μM hydroxyurea at a concentration of 5×10^5 cells/ml. 5 ml of the suspension was added to each well of a 6-well microtiter plate. On the other hand, as cells without the treatment with hydroxyurea, HL-60 cells were suspended in RPMI 1640 medium containing 10% fetal calf serum (Gibco) at a concentration of 1×10^5 cells/ml. 5 ml of the suspension was added to each well of a 6-well microtiter plate. 50 μl of a solution containing DGE at a concentration of 30, 22.5, 15 or 7.5 mM in water, 25 μl of a solution containing the compound (7) at a concentration of 60, 45, 30 or 15 mM in dimethyl sulfoxide, or 25 μl of a solution containing the compound (17) at a concentration of 100, 75, 50 or 25 mM in dimethyl sulfoxide was added to the well containing the cells treated with hydroxyurea. 50 μl of a solution containing DGE at a concentration of 8, 6, 4 or 2 mM in water, 25 μl of a solution containing the compound (7) at a concentration of 30, 22.5, 15 or 7.5 mM in dimethyl sulfoxide, or 25 μl of a solution containing the compound (17) at a concentration of 80, 60, 40 or 20 mM in dimethyl sulfoxide was added to the well containing the cells without the treatment with hydroxyurea. The plate was incubated for additional 48 hours. Cells collected by centrifuging the culture were suspended in 5 ml of fresh RPMI 1640 medium containing 10% fetal calf serum (Gibco). 100 μl of the suspension was used for measuring viable cell number using Premix WST-1 Cell Proliferation Assay System (Takara Shuzo, MK400).
For each of the samples, the concentration at which 50% of the proliferation is inhibited (IC50) for the cells treated with hydroxyurea was higher than that for the cells without the treatment with hydroxyurea. Table 3 summarizes IC50 (μM) for each of the samples. […] Since most of cells in a living body are arrested at G1 phase, it is considered that DGE and R-AhGal compounds (precursors of DGE) are agents less toxic to a living body.

[3] = test system: PGE2 production in celiac macrophages; experiment: PGE2 production of celiac macrophages from orally dosed mice; assay type: in vivo; conditions: 1% suspension in olive oil, forced oral administration once a day, 12 times in 15 days, 10 or 30 ml/kg, ddY mice
Protocol: The compound (7) in Example 1 was suspended in olive oil (Nacalai Tesque) at a concentration of 1% to prepare a 1% suspension of the compound (7). The 1% suspension of the compound (7) prepared as described above was administered to ddY mice (Japan SLC, female, 7 weeks old) by forced oral administration once a day, 12 times in 15 days, at a dosage of 10 or 30 ml/kg. Tap water was similarly administered by forced oral administration as a control. Each group consisted of 3 mice. Thereafter, 4 ml of RPMI 1640 medium (Bio Whittaker, Code. 12-702F) containing 10% fetal calf serum was intraperitoneally injected. Media removed from 3 mice after extensive massage were combined to obtain celiac cells. The celiac cells were suspended in RPMI 1640 medium containing 10% fetal calf serum at a concentration of 10^6 cells/ml. 500 μl of the suspension was added to each well of a 48-well microtiter plate and the plate was incubated at 37° C. for 2 hours in the presence of 5% CO2. Adhesive cells obtained by removing the culture supernatant were used as celiac macrophages. […] After the plate was incubated for additional 12 hours, the amount of prostaglandin E2 (PGE2) was measured. […] After cultivation, the amount of prostaglandin E2 in the culture supernatant was measured using Prostaglandin E2 ELISA Kit (Neogen, Code. 404110). […]

[4] = HL-60 cells arrested at G1 phase with 100 μM hydroxyurea, read-out: IC50, Cells treated with hydroxyurea
[5] = HL-60 cells, read-out: IC50, Cells without treatment with hydroxyurea

SMILES	IC50 ([1]; 24 hours) [µM]	IC50 ([1]; 48 hours) [µM]	IC50 [2, 4] [µM]	IC50 [2, 5] [µM]	activity of inhibiting PGE2 production in celiac macrophages (LPS) [3]
O=C[C@H](O)[C@H]1OC[C@@H](O)[C@@H]1OC(=O)c1ccccc1 [Compound (7), 4-O-benzoyl-3,6-anhydro-D-galactose]	123	101	151	79.1	remarkable activity of inhibiting PGE2 production
OCC1OC(OC2C(CO)OC(OC3C(CO)OC(OC4C(O)COC4C(O)C(O)O)C(O)C3O)C(O)C2O)C(O)C(O)C1O [Compound (14), 4-O-β-maltotoriosyl-3,6-anhydro-D-galactose]	551	150			
O=C[C@H](O)[C@H]1OC[C@@H](O)[C@@H]1OCc1ccccc1 [Compound (17), 4-O-benzyl-3,6-anhydro-D-galactose]			264	190	
